The structures appear in SMILES notation.

One experiment deals with RS411 cells. Description: Cell Viability CTG Assay (CellTiter Glo) in RS411 cells. Type of experiment: cell-based. The conditions noted are these: Homo sapiens, RS4-11, 24 h, duration 1 day. The protocol:
Example 23. Cell Viability CTG Assay
Day 0: Compounds or DMSO 60 nL were stamped to the cell plate as the platemap. RS411 cells were centrifuged at 800 rpm for 5 min, suspended with culture medium, and counted with Countess (Invitrogen). The cell density was adjusted to the recommend information. 30 μL of cell solution (1000 cells/well) was added to the assay plate as the platemap and 30 uL of media was added to column 2 and column 23 as the platemap. The plate was spun down briefly. The final concentration of the compounds started at 10 μM (3 fold dilution and 11 doses) and final DMSO concentration was 0.2%. The plate was spun down briefly and incubated at 37° C., 5% CO2 for 1-4 days.
30 μL CellTiter Glo reagent was added to each well and the plate was centrifuged at 1000 rpm for 30 sec. The plate was shaken for 1 min and centrifuged at 1000 rpm for 30 sec. The plate was incubated at RT for 10 min to stabilize the luminescent signal and the luminescence was read by EnVision.
The letter codes for IC50 indicate the concentration of compound required to affect 50% of cells: A (<0.05 μM), B (0.05-0.1 μM), C (0.1-0.5 μM), D (0.5-1.0 μM), and E (>1.0 μM).
In general terms: ATP-based viability assays read luminescence as a measure of living cells.
Consider `Cn1c(=O)n(C2CCC(=O)NC2=O)c2ccc(CCCCCNC[C@H]3CC[C@H](NC(=O)[C@@H]4NC5(CCCCC5)[C@@]5(C(=O)Nc6cc(Cl)ccc65)[C@H]4c4cccc(Cl)c4F)CC3)cc21` (stereo partly shown) [I-125], for which the half-inhibitory concentration (IC50) (in general, the concentration needed to halve the response being measured) was less than 50 nM. `Cn1c(=O)n(C2CCC(=O)NC2=O)c2ccc(CCC3CCN(C(=O)c4coc([C@@H]5NC6(CCCCC6)[C@@]6(C(=O)Nc7cc(Cl)ccc76)[C@H]5c5cccc(Cl)c5F)n4)CC3)cc21` (stereo partly shown) [I-165] had an IC50 of more than 1000 nM. Consider `Cn1c(=O)n(C2CCC(=O)NC2=O)c2ccc(C#CCCCNC(=O)[C@H]3CC[C@H](NC(=O)[C@@H]4NC5(CCCCC5)[C@@]5(C(=O)Nc6cc(Cl)ccc65)[C@H]4c4cccc(Cl)c4F)CC3)cc21` (stereo partly shown) [I-82], for which the IC50 was less than 50 nM. Still for that read-out and setting: for `Cn1c(=O)n(C2CCC(=O)NC2=O)c2ccc(C#CC3CN(C(=O)[C@H]4C[C@H](NC(=O)[C@@H]5NC6(CCCCC6)[C@@]6(C(=O)Nc7cc(Cl)ccc76)[C@H]5c5cccc(Cl)c5F)C4)C3)cc21` (stereo partly drawn) [I-89, (3′R,4'S,5′R)-6″-chloro-4′-(3-chloro-2-fluorophenyl)-N-((1r,3R)-3-(3-((1-(2,6-dioxopiperidin-3-yl)-3-methyl-2-oxo-2,3-dihydro-1H-benzo[d]imidazol-5-yl)ethynyl)azetidine-1-carbonyl)cyclobutyl)-2″-oxodispiro[cyclohexane-1,2′-pyrrolidine-3′,3″-indoline]-5′-carboxamide] the value was less than 50 nM. Still for that read-out and setting: as for `Cn1c(=O)n(C2CCC(=O)NC2=O)c2cccc(CCCC(=O)N3CCN(C(=O)c4ccc(NC(=O)[C@@H]5NC6(CCCCC6)[C@@]6(C(=O)Nc7cc(Cl)ccc76)[C@H]5c5cccc(Cl)c5F)cc4)CC3)c21` (stereo partly shown) [I-50], the figure is less than 50 nM.

`CC(C)[C@@H](CS(=O)(=O)C(C)C)N1C(=O)[C@@](C)(CC(=O)N[C@H]2CC[C@H](CN3CCC(C#Cc4ccn5c(N6CCC(=O)NC6=O)cnc5c4)CC3)CC2)C[C@H](c2cccc(Cl)c2)[C@H]1c1ccc(Cl)cc1` [I-166] gave an IC50 of 500 to 1000 nM. As to `Cn1c(=O)n(C2CCC(=O)NC2=O)c2cccc(CCCOC3CCN(C(=O)c4ccc(NC(=O)[C@@H]5NC6(CCCCC6)[C@@]6(C(=O)Nc7cc(Cl)ccc76)[C@H]5c5cccc(Cl)c5F)cc4)CC3)c21` (stereo partly shown) [I-64], the 50% inhibitory concentration (IC50) was less than 50 nM. `Cn1c(=O)n(C2CCC(=O)NC2=O)c2ccc(CCCN3CCN(Cc4ccc(NC(=O)[C@@H]5NC6(CCCCC6)[C@@]6(C(=O)Nc7cc(Cl)ccc76)[C@H]5c5cccc(Cl)c5F)cc4)CC3)cc21` (stereo partly shown) [I-121]: the IC50 is less than 50 nM. In turn, `CC(C)[C@@H](CS(=O)(=O)C(C)C)N1C(=O)[C@@](C)(CC(=O)N[C@H]2CC[C@H](CN3CCC(C#Cc4cccn5c(N6CCC(=O)NC6=O)cnc45)CC3)CC2)C[C@H](c2cccc(Cl)c2)[C@H]1c1ccc(Cl)cc1` [I-170] showed an IC50 of 100 to 500 nM. The same measure, in the same setting: as for `Cn1c(=O)n(C2CCC(=O)NC2=O)c2cccc(C3CCN(C(=O)[C@H]4CC[C@H](NC(=O)[C@@H]5NC6(CCC(C)(C)CC6)[C@@]6(C(=O)Nc7cc(Cl)ccc76)[C@H]5c5cccc(Cl)c5F)CC4)CC3)c21` (stereo partly shown) [I-137], the figure is less than 50 nM; as for `Cn1c(=O)n(C2CCC(=O)NC2=O)c2cccc(C#CCCCNC(=O)c3ccc(NC(=O)[C@@H]4NC5(CCCCC5)[C@@]5(C(=O)Nc6cc(Cl)ccc65)[C@H]4c4cccc(Cl)c4F)cc3)c21` (stereo partly shown) [I-51], less than 50 nM.

With `Cn1c(=O)n(C2CCC(=O)NC2=O)c2ccc(CCN3CCN(C[C@H]4CC[C@H](NC(=O)[C@@H]5NC6(CCC(C)(C)CC6)[C@@]6(C(=O)Nc7cc(Cl)ccc76)[C@H]5c5ccnc(Cl)c5F)CC4)CC3)cc21` (stereo partly shown) [I-196], the 50% inhibitory concentration (IC50) is less than 50 nM. For `Cn1c(=O)n(C2CCC(=O)NC2=O)c2cccc(C#CCN3CCC4(CC3)CN(C(=O)c3ccc(NC(=O)[C@@H]5NC6(CCCCC6)[C@@]6(C(=O)Nc7cc(Cl)ccc76)[C@H]5c5cccc(Cl)c5F)cc3)C4)c21` (stereo partly shown) [I-60], the IC50 is less than 50 nM. For the compound `COc1cc2c(cc1OC(C)C)C(c1ccc(Cl)cc1)N(c1ccc(N(C)C[C@H]3CC[C@H](N(C)CCCCCc4cccc5c4n(C)c(=O)n5C4CCC(=O)NC4=O)CC3)cc1)C(=O)C2` (stereo partly shown) [I-87], the IC50 is less than 50 nM. In turn, `O=C1CCC(n2c(=O)oc3cc(CCCOCCOCCNC(=O)c4ccc(NC(=O)[C@@H]5NC6(CCCCC6)[C@@]6(C(=O)Nc7cc(Cl)ccc76)[C@H]5c5cccc(Cl)c5F)cc4)ccc32)C(=O)N1` (stereo partly shown) [I-57] gave an IC50 of less than 50 nM. Consider `Cn1c(=O)n(C2CCC(=O)NC2=O)c2ccc(CCCCCNC(=O)[C@H]3CC[C@H](NC(=O)[C@@H]4NC5(CCC(C)(C)CC5)[C@@]5(C(=O)Nc6cc(Cl)ccc65)[C@H]4c4cccc(Cl)c4F)CC3)cc21` (stereo partly shown) [I-72], for which the half-maximal inhibitory concentration (IC50) is less than 50 nM. `Cn1c(=O)n(C2CCC(=O)NC2=O)c2ccc(C#CC3CCN(C(=O)[C@H]4CC[C@H](NC(=O)[C@@H]5NC6(CCC(C)(C)CC6)[C@@]6(C(=O)Nc7cc(Cl)ccc76)[C@H]5c5cccc(Cl)c5F)CC4)CC3)cc21` (stereo partly shown) [I-71] displayed an IC50 of less than 50 nM.

Consider `Cn1c(=O)n(C2CCC(=O)NC2=O)c2ccc(CN3CCN(C[C@H]4CC[C@H](NC(=O)[C@@H]5NC6(CCC(C)(C)CC6)[C@@]6(C(=O)Nc7cc(Cl)ccc76)[C@H]5c5ccnc(Cl)c5F)CC4)CC3)cc21` (stereo partly shown) [I-205], for which the half-maximal inhibitory concentration (IC50) was less than 50 nM.

As for `Cn1c(=O)n(C2CCC(=O)NC2=O)c2ccc(CCCCCNC(=O)[C@H]3CC[C@H](NC(=O)[C@@H]4NC5(CCC(C)(C)CC5)[C@@]5(C(=O)Nc6cc(Cl)ccc65)[C@H]4c4ccnc(Cl)c4F)CC3)cc21` (stereo partly shown) [I-151], the half-inhibitory concentration (IC50) is 100 to 500 nM. The same measure, in the same setting: for `Cn1c(=O)n(C2CCC(=O)NC2=O)c2ccc(C#CCCNC(=O)c3ccc(NC(=O)[C@@H]4NC5(CCCCC5)[C@@]5(C(=O)Nc6cc(Cl)ccc65)[C@H]4c4cccc(Cl)c4F)cc3)cc21` (stereo partly shown) [I-48] the value was less than 50 nM; for `COc1cc2c(cc1OC(C)C)C(c1ccc(Cl)cc1)N(c1ccc(N(C)C[C@H]3CC[C@H](N(C)CCCC#Cc4c(OC)ccc5c4n(C)c(=O)n5C4CCC(=O)NC4=O)CC3)cc1)C(=O)C2` (stereo partly shown) [I-206], less than 50 nM. Turning to `O=C1CCN(c2cnc3cc(C#CCOC4CCN(C(=O)c5ccc(NC(=O)[C@@H]6NC7(CCCCC7)[C@@]7(C(=O)Nc8cc(Cl)ccc87)[C@H]6c6cccc(Cl)c6F)cc5)CC4)ccn23)C(=O)N1` [I-106], the half-maximal inhibitory concentration (IC50) is less than 50 nM. Same read-out and setting: for `COc1cc2c(cc1OC(C)C)C(c1ccc(Cl)cc1)N(c1ccc(N(C)C[C@H]3CC[C@H](N(C)CCc4ccc5c(c4)n(C)c(=O)n5C4CCC(=O)NC4=O)CC3)cc1)C(=O)C2` (stereo partly shown) [I-195] the value was more than 1000 nM; for `Cn1c(=O)n(C2CCC(=O)NC2=O)c2cccc(CCC3CC4(CCN(C(=O)c5ccc(NC(=O)[C@@H]6NC7(CCCCC7)[C@@]7(C(=O)Nc8cc(Cl)ccc87)[C@H]6c6cccc(Cl)c6F)cc5)CC4)C3)c21` (stereo partly shown) [I-53], 50 to 100 nM.

As for `Cn1c(=O)n(C2CCC(=O)NC2=O)c2ccc(C#CCCCCCCCCN3[C@@H](C(=O)Nc4ccc(C(=O)O)cc4)[C@H](c4cccc(Cl)c4F)[C@]4(C(=O)Nc5cc(Cl)ccc54)C34CCCCC4)cc21` (stereo partly drawn) [I-214, 4-((3′R,4'S,5′R)-6″-chloro-4′-(3-chloro-2-fluorophenyl)-1′-(10-(1-(2,6-dioxopiperidin-3-yl)-3-methyl-2-oxo-2,3-dihydro-1H-benzo[d]imidazol-5-yl)dec-9-yn-1-yl)-2″-oxodispiro[cyclohexane-1,2′-pyrrolidine-3′,3″-indoline]-5′-carboxamido)benzoic acid], the half-inhibitory concentration (IC50) lay in the range of 50 to 100 nM. The compound `Cn1c(=O)n(C2CCC(=O)NC2=O)c2cccc(C#CCNC(=O)c3ccc(NC(=O)[C@@H]4NC5(CCCCC5)[C@@]5(C(=O)Nc6cc(Cl)ccc65)[C@H]4c4cccc(Cl)c4F)cc3)c21` (stereo partly shown) [I-46] gave an IC50 of less than 50 nM.

For the compound `CN(CCC#Cc1cccc2c1n(C)c(=O)n2C1CCC(=O)NC1=O)C(=O)c1ccc(NC(=O)[C@@H]2NC3(CCCCC3)[C@@]3(C(=O)Nc4cc(Cl)ccc43)[C@H]2c2cccc(Cl)c2F)cc1` (stereo partly shown) [I-62], the IC50 was 50 to 100 nM.

As to `Cn1c(=O)n(C2CCC(=O)NC2=O)c2ccc(C#CC3CN(C(=O)[C@H]4C[C@H](NC(=O)[C@@H]5NC6(CCC(C)(C)CC6)[C@@]6(C(=O)Nc7cc(Cl)ccc76)[C@H]5c5cccc(Cl)c5F)C4)C3)cc21` (stereo partly shown) [I-100], the IC50 was less than 50 nM.

As to `Cn1c(=O)n(C2CCC(=O)NC2=O)c2ccc(CCC3CCN(CCNC(=O)[C@@H]4NC5(CCCCC5)[C@@]5(C(=O)Nc6cc(Cl)ccc65)[C@H]4c4cccc(Cl)c4F)CC3)cc21` (stereo partly shown) [I-138], the IC50 was more than 1000 nM. On the same count and under the same terms, for `COc1cc2c(cc1OC(C)C)C(c1ccc(Cl)cc1)N(c1ccc(N(C)C[C@H]3CC[C@H](N4CCN(CCCCCc5ccc6c(c5)n(C)c(=O)n6C5CCC(=O)NC5=O)C(=O)C4)CC3)cc1)C(=O)C2` (stereo partly shown) [I-193] the value was less than 50 nM; for `O=C1CCN(c2cnc3cc(C#CC4CCN(C[C@H]5CC[C@H](NC(=O)[C@@H]6NC7(CCCCC7)[C@@]7(C(=O)Nc8cc(Cl)ccc87)[C@H]6c6cccc(Cl)c6F)CC5)CC4)ccn23)C(=O)N1` [I-119], less than 50 nM.

Still in this experiment, the particulars now being: Homo sapiens, RS4-11, 96 h, duration 4 days.
`CC(C)[C@@H](CS(=O)(=O)C(C)C)N1C(=O)[C@@](C)(CC(=O)Nc2ccc(C(=O)NCCCCCc3ccc4c(c3)n(C)c(=O)n4C3CCC(=O)NC3=O)cc2)C[C@H](c2cccc(Cl)c2)[C@H]1c1ccc(Cl)cc1` (stereo partly shown) [I-14] registered an IC50 of less than 50 nM. Still for that read-out and setting: for `COc1cc(C(=O)NCCCCCCCCNC(=O)c2ccc(NC(=O)[C@@H]3N[C@@H](CC(C)(C)C)[C@](C#N)(c4ccc(Cl)cc4F)[C@H]3c3cccc(Cl)c3F)c(OC)c2)ccc1NC(=O)[C@@H]1N[C@@H](CC(C)(C)C)[C@](C#N)(c2ccc(Cl)cc2F)[C@H]1c1cccc(Cl)c1F` [I-32] the value was 100 to 500 nM; for `COc1cc(C(=O)NCCCC#Cc2cccc3c2n(C)c(=O)n3C2CCC(=O)NC2=O)ccc1NC(=O)[C@@H]1N[C@@H](CC(C)(C)C)[C@](C#N)(c2ccc(Cl)cc2F)[C@H]1c1cccc(Cl)c1F` (stereo partly shown) [I-30], less than 50 nM.

The values above are taken from patent US11932624B2, “MDM2 degraders and uses thereof” (Kymera Therapeutics, Inc., priority 2020, dated 2024).
